Settings: Hot wire method

FC(F)(F)/C=C/Cl [(E)-1-chloro-3,3,3-trifluoroprop-1-ene]
Settings | thermal conductivity [W/m/K]
302.53 K, 136 kPa, Gas | 0.01102
302.53 K, 16444 kPa, Liquid | 0.0897
302.53 K, 47194 kPa, Liquid | 0.1006
302.55 K, 122 kPa, Gas | 0.01105
302.55 K, 36223 kPa, Liquid | 0.09702
302.57 K, 8074 kPa, Liquid | 0.08557
302.59 K, 25791 kPa, Liquid | 0.09335
302.6 K, 16014 kPa, Liquid | 0.08919
302.61 K, 11882 kPa, Liquid | 0.08715
302.61 K, 30546 kPa, Liquid | 0.0947
302.62 K, 142 kPa, Gas | 0.01123
302.62 K, 7818 kPa, Liquid | 0.08552
302.64 K, 122 kPa, Gas | 0.01131
302.64 K, 131 kPa, Gas | 0.01128
302.64 K, 139 kPa, Gas | 0.01119
302.65 K, 7853 kPa, Liquid | 0.08571
302.65 K, 25491 kPa, Liquid | 0.09284
302.66 K, 20510 kPa, Liquid | 0.09077
302.68 K, 16449 kPa, Liquid | 0.08922
302.7 K, 373 kPa, Liquid | 0.08122
302.72 K, 4080 kPa, Liquid | 0.08356
302.72 K, 8075 kPa, Liquid | 0.08531
302.75 K, 11886 kPa, Liquid | 0.08659
302.75 K, 16005 kPa, Liquid | 0.08846
302.75 K, 62930 kPa, Liquid | 0.106
302.76 K, 303 kPa, Liquid | 0.08187
302.76 K, 65463 kPa, Liquid | 0.1068
302.78 K, 7822 kPa, Liquid | 0.08491
302.79 K, 56432 kPa, Liquid | 0.1045
302.81 K, 7852 kPa, Liquid | 0.08507
302.82 K, 48051 kPa, Liquid | 0.1011
302.83 K, 48410 kPa, Liquid | 0.1013
302.85 K, 131 kPa, Gas | 0.0108
302.85 K, 136 kPa, Gas | 0.01096
302.86 K, 122 kPa, Gas | 0.011
302.87 K, 381 kPa, Liquid | 0.08077
302.88 K, 4074 kPa, Liquid | 0.08317
302.91 K, 62949 kPa, Liquid | 0.1057
302.92 K, 299 kPa, Liquid | 0.08155
302.92 K, 36387 kPa, Liquid | 0.09706
302.92 K, 65445 kPa, Liquid | 0.1067
302.93 K, 41986 kPa, Liquid | 0.09906
302.93 K, 47187 kPa, Liquid | 0.1008
302.95 K, 36224 kPa, Liquid | 0.09698
302.95 K, 56429 kPa, Liquid | 0.1038
302.98 K, 48055 kPa, Liquid | 0.1009
303 K, 48417 kPa, Liquid | 0.101
303.02 K, 25798 kPa, Liquid | 0.09309
303.03 K, 30542 kPa, Liquid | 0.09496
303.04 K, 142 kPa, Gas | 0.01123
303.06 K, 137 kPa, Gas | 0.01133
303.07 K, 121 kPa, Gas | 0.01128
303.07 K, 131 kPa, Gas | 0.01133
303.08 K, 25486 kPa, Liquid | 0.09308
303.09 K, 20509 kPa, Liquid | 0.09124
303.09 K, 41994 kPa, Liquid | 0.09863
303.09 K, 47182 kPa, Liquid | 0.1005
303.12 K, 16450 kPa, Liquid | 0.08937
303.12 K, 36213 kPa, Liquid | 0.09661
303.17 K, 135 kPa, Gas | 0.01096
303.18 K, 122 kPa, Gas | 0.01101
303.18 K, 132 kPa, Gas | 0.0107
303.18 K, 8071 kPa, Liquid | 0.0855
303.2 K, 16008 kPa, Liquid | 0.08894
303.2 K, 25794 kPa, Liquid | 0.0928
303.21 K, 11886 kPa, Liquid | 0.08665
303.21 K, 30558 kPa, Liquid | 0.09462
303.24 K, 7824 kPa, Liquid | 0.08506
303.25 K, 25489 kPa, Liquid | 0.09272
303.27 K, 20510 kPa, Liquid | 0.09093
303.28 K, 7854 kPa, Liquid | 0.08529
303.31 K, 16446 kPa, Liquid | 0.08918
303.31 K, 62940 kPa, Liquid | 0.1059
303.32 K, 65424 kPa, Liquid | 0.1066
303.34 K, 383 kPa, Liquid | 0.08114
303.35 K, 4071 kPa, Liquid | 0.08347
303.36 K, 56409 kPa, Liquid | 0.1043
303.38 K, 8070 kPa, Liquid | 0.08486
303.38 K, 16014 kPa, Liquid | 0.08858
303.39 K, 11885 kPa, Liquid | 0.08675
303.4 K, 295 kPa, Liquid | 0.08173
303.4 K, 48041 kPa, Liquid | 0.1012
303.42 K, 48413 kPa, Liquid | 0.1013
303.44 K, 7814 kPa, Liquid | 0.0847
303.47 K, 7846 kPa, Liquid | 0.0848
303.5 K, 136 kPa, Gas | 0.01133
303.5 K, 62957 kPa, Liquid | 0.1058
303.5 K, 65425 kPa, Liquid | 0.1067
303.51 K, 132 kPa, Gas | 0.01137
303.51 K, 41983 kPa, Liquid | 0.09892
303.51 K, 47179 kPa, Liquid | 0.1008
303.53 K, 122 kPa, Gas | 0.01133
303.54 K, 4064 kPa, Liquid | 0.08281
303.54 K, 56404 kPa, Liquid | 0.1037
303.56 K, 36213 kPa, Liquid | 0.09672
303.59 K, 293 kPa, Liquid | 0.08112
303.6 K, 48039 kPa, Liquid | 0.101
303.61 K, 48415 kPa, Liquid | 0.101
303.71 K, 41980 kPa, Liquid | 0.09862
303.71 K, 47178 kPa, Liquid | 0.1004
303.76 K, 36210 kPa, Liquid | 0.09644
303.97 K, 136 kPa, Gas | 0.01134
304 K, 121 kPa, Gas | 0.01134
304.01 K, 131 kPa, Gas | 0.01133
304.5 K, 135 kPa, Gas | 0.01137
304.51 K, 122 kPa, Gas | 0.01139
304.53 K, 130 kPa, Gas | 0.01127
305.03 K, 135 kPa, Gas | 0.0114
305.05 K, 121 kPa, Gas | 0.0114
305.16 K, 131 kPa, Gas | 0.01092
305.6 K, 134 kPa, Gas | 0.01142
305.62 K, 122 kPa, Gas | 0.01143
305.74 K, 132 kPa, Gas | 0.01105
311.53 K, 157 kPa, Gas | 0.01177
311.84 K, 158 kPa, Gas | 0.01185
311.93 K, 134 kPa, Gas | 0.01187
312.17 K, 165 kPa, Gas | 0.01181
312.19 K, 159 kPa, Gas | 0.01198
312.22 K, 98 kPa, Gas | 0.012
312.23 K, 134 kPa, Gas | 0.01169
312.26 K, 135 kPa, Gas | 0.01202
312.37 K, 191 kPa, Gas | 0.012
312.46 K, 165 kPa, Gas | 0.01175
312.5 K, 133 kPa, Gas | 0.0117
312.53 K, 160 kPa, Gas | 0.01191
312.56 K, 98 kPa, Gas | 0.01197
312.64 K, 135 kPa, Gas | 0.01197
312.67 K, 191 kPa, Gas | 0.01194
312.76 K, 166 kPa, Gas | 0.01173
312.79 K, 131 kPa, Gas | 0.01152
312.81 K, 96 kPa, Gas | 0.01168
312.82 K, 133 kPa, Gas | 0.01159
312.93 K, 97 kPa, Gas | 0.01203
312.94 K, 162 kPa, Gas | 0.01192
312.97 K, 190 kPa, Gas | 0.01196
313.06 K, 134 kPa, Gas | 0.01201
313.06 K, 195 kPa, Gas | 0.01197
313.07 K, 167 kPa, Gas | 0.01173
313.11 K, 96 kPa, Gas | 0.0116
313.11 K, 130 kPa, Gas | 0.0115
313.15 K, 132 kPa, Gas | 0.01155
313.31 K, 97 kPa, Gas | 0.01207
313.35 K, 195 kPa, Gas | 0.01196
313.36 K, 163 kPa, Gas | 0.01197
313.42 K, 96 kPa, Gas | 0.01157
